Source: patent US9427458B2, “Methods for inhibiting cancer cell proliferation” (Consejo Nacional de Investigaciones Cientificas y Tecnicas, …, priority 2010, dated 2016)
Entries after “also recorded” stand apart in the source; their conditions may differ.

Columns and labels:
[1] = tested on: cyclin D1 promoter; test: Human cyclin D1 promoter luciferase reporter in T47D cells; type: cell-based; settings: MPA 24 h, versus cells untreated with MPA
Source text: The luciferase reporter plasmid downstream the cyclin D1 human promoter region (−1745 cyclin D1-luc), and constructs truncated at positions −963, −261, −141, were kindly provided by Dr. R. Pestell (Northwestern University Medical School, Chicago, Ill.). These constructs were generated by truncation of the 1745-bp length promoter in order to sequentially exclude 5′ regions of the promoter. The −963 cyclin D1-luc construct excludes one GAS site (−984), the −261 cyclin D1-luc excludes three GAS sites (−984, −568 and −475) and the −141 cyclin D1-luc excludes four GAS sites (−984, −568, −475 and −239). The empty vector pA3 Luc was also provided by Dr. R. Pestell. The luciferase reporter plasmid containing four copies of the m67 high-affinity binding site (p4×m67-tk-luc) and the pTATA-tk-Luc reporter lacking the m67 insertion were a gift from Dr J. Darnell (The Rockefeller University, New York, N.Y.). The Renilla luciferase expression plasmid RLCMV was obtained from Promega (Madison, Wis.). […] Triplicate samples were analyzed for each datum point. Differences between experimental groups were analyzed by ANOVA followed by Tukey test between groups.

[2] = tested on: ErbB-2; test: ErbB-2 cellular localization (subcellular fractionation/immunoblot, confocal microscopy) in C4HD cells; type: cell-based, mouse; settings: MPA treatment of C4HD cells, 15 to 60 min
Description: Lysates were prepared from cells subjected to the different treatments and proteins were subjected to SDS-PAGE as previously described (21). Membranes were immunoblotted with the antibodies detailed in each experiment. When phospho(p)-protein antibodies were used, filters were reprobed with total protein antibodies. Signal intensities of pErbB-2, pStat3, pSrc, pPR, pJak1, and pJak2 bands were analyzed by densitometry and normalized to total protein bands. Similarly, signal intensities of PR, cyclin D1, Stat3, and ErbB-2 bands were normalized to actin or β tubulin bands. […]
Cells grown on glass coverslips were fixed and permeabilized in ice-cold methanol and were then blocked with PBS 1% BSA. ErbB-2 was localized using either a rabbit polyclonal (C-18) or a mouse monoclonal (F-11) ErbB-2 antibody (Santa Cruz Biotechnology) and Stat3 was detected using a mouse monoclonal antibody (124H6, Cell Signaling), followed by incubation with a goat anti-rabbit IgG-Alexa 488 (Molecular Probes, Eugene, Oreg.) secondary antibody for ErbB-2 (C-18) and with a rhodamine conjugated goat anti-mouse secondary antibody (Jackson ImmunoResearch Laboratories, West Grove, Pa.) for both ErbB2 (F-11) and Stat3. […] When cells were transfected with hErbB-2ΔNLS, green fluorescent protein from this expression vector was visualized by direct fluorescence imaging. […]

[3] = tested on: ErbB-2; test: ErbB-2 tyrosine phosphorylation by Western blot in C4HD cells; type: cell-based, mouse; settings: MPA treatment of C4HD cells
Description: Primary cultures of epithelial cells from C4HD tumors were performed as described (2). T47D cells were obtained from American Type Culture Collection and T47D-Y cells were a generous gift from Dr. K. Horwitz (Denver, Colo.). To evaluate the effects of the pharmacological inhibitors on MPA-induced proteins phosphorylation or cyclin D1 expression, cells were preincubated for 90 min with RU486, PP2, Tyrphostin AG825 or Jak inhibitor I before addition of MPA. Cell proliferation was evaluated by [3H]-thymidine incorporation assay and cell cycle distribution was analyzed by flow cytometry, as described (22).
Lysates were prepared from cells subjected to the different treatments and proteins were subjected to SDS-PAGE as previously described (21). Membranes were immunoblotted with the antibodies detailed in each experiment. When phospho(p)-protein antibodies were used, filters were reprobed with total protein antibodies. Signal intensities of pErbB-2, pStat3, pSrc, pPR, pJak1, and pJak2 bands were analyzed by densitometry and normalized to total protein bands. Similarly, signal intensities of PR, cyclin D1, Stat3, and ErbB-2 bands were normalized to actin or β tubulin bands. […] The NEPER Nuclear and Cytoplasmic Extraction Reagents technique (Pierce Biotechnology) was performed as per manufacturer's instructions. […]

CC(=O)O[C@]1(C(C)=O)CC[C@H]2[C@@H]3C[C@H](C)C4=CC(=O)CC[C@]4(C)[C@H]3CC[C@@]21C [MPA, Medroxyprogesterone acetate]
increase in cyclin D1 promoter activity [1]: 3 fold | ErbB-2 nuclear translocation [2]: resulted in ErbB-2 nuclear localization; also recorded: induced a strong ErbB-2 protein nuclear translocation | ErbB-2 phosphorylation at Tyr 1272 and Tyr 927 [3]: induces a rapid phosphorylation
